US8163756B2 (priority 2004, dated 2012)

These compounds were tested against B-Raf(V599E) kinase (Homo sapiens, UniProt P15056, V600E) (assay: B-Raf(V599E) kinase assay B1 (construct 1, MEK1 substrate, coupled spectrophotometric)).
Sequence of B-Raf(V599E) kinase (P15056 with tags, fused parts or gaps V600E): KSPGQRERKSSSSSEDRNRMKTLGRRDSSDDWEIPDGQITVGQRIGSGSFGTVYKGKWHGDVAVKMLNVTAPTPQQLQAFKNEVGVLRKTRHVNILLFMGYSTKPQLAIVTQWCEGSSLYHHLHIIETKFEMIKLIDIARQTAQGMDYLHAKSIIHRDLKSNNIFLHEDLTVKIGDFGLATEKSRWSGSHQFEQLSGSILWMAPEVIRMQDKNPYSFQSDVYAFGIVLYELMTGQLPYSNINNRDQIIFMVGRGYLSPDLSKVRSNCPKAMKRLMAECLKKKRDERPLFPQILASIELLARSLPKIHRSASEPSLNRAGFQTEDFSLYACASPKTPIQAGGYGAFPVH
Assay type: biochemical
Protocol: The test compounds were incubated with the reaction mixtureat 30° C. for 2 h. […] The reaction rate was calculated using the […] time frame. […] IC50 values were calculated from a series of percent inhibition values determined at a range of inhibitor concentrations using software routines as implemented in the GraphPad Prism software package.
Compound `CC(C)(C)c1cc(NC(=O)Nc2cccc(Cl)c2Cl)n(-c2cccc(CC(N)=O)c2)n1` [Example 25, 1-{1-[3-(2-amino-2-oxoethyl)phenyl]-3-t-butyl-1H-pyrazol-5-yl}-3-(2,3-dichlorophenyl)urea] has an IC50 of 3.5 nM. In the case of `CC(C)(C)c1cc(NC(=O)Nc2ccccc2)n(-c2cc(CC(N)=O)c3ccccc3c2)n1` [Example 88, 1-(1-(4-(2-amino-2-oxoethyl)naphthalen-2-yl)-3-t-butyl-1H-pyrazol-5-yl)-3-phenylurea], the IC50 is reported as 12 nM. Work on `CC(C)(C)c1cc(NC(=O)Nc2ccccc2F)n(-c2cc(CC(N)=O)c3ccccc3c2)n1` [Example 89, 1-(1-(4-(2-amino-2-oxoethyl)naphthalen-2-yl)-3-t-butyl-1H-pyrazol-5-yl)-3-(2-fluorophenyl)urea] yielded an IC50 of 5.5 nM. `CC(C)(C)c1cc(NC(=O)Nc2cccc(F)c2F)n(-c2cc(CC(N)=O)c3ccccc3c2)n1` [Example 90, 1-(1-(4-(2-amino-2-oxoethyl)naphthalen-2-yl)-3-t-butyl-1H-pyrazol-5-yl)-3-(2,3-difluorophenyl)urea] was tested, and the IC50 was 3.9 nM. Compound `CC(C)(C)c1cc(NC(=O)Nc2cc(F)c(F)c(F)c2)n(-c2cc(CC(N)=O)c3ccccc3c2)n1` [Example 92, 1-(1-(4-(2-amino-2-oxoethyl)naphthalen-2-yl)-3-t-butyl-1H-pyrazol-5-yl)-3-(3,4,5-trifluorophenyl)urea] has an IC50 of 8.2 nM. `CC(C)(C)c1cc(NC(=O)NC2CCCC2)n(-c2cc(CC(N)=O)c3ccccc3c2)n1` [Example 93, 1-(1-(4-(2-amino-2-oxoethyl)naphthalen-2-yl)-3-t-butyl-1H-pyrazol-5-yl)-3-cyclopentylurea] was tested, and the IC50 was 60 nM. Work on `C[C@H](NC(=O)Nc1cc(C(C)(C)C)nn1-c1cccc(C#N)c1)c1ccccc1` [Example 211, 1-[3-t-butyl-1-(3-cyanophenyl)-1H-pyrazol-5-yl]-3-((S)-1-phenylethyl)urea] yielded an IC50 of 785 nM. `CC(C)(C)c1cc(NC(=O)Nc2ccccc2F)n(-c2cccc(CO)c2)n1` [Example 219, 1-{3-t-butyl-1-[3-(hydroxymethyl)phenyl]-1H-pyrazol-5-yl}-3-(2-fluorophenyl)urea] gave an IC50 of 55 nM. Compound `CC(C)(C)c1cc(NC(=O)Nc2ccc3c(c2)OCO3)n(-c2cccc(CO)c2)n1` [Example 221, 1-(benzo[d][1,3]dioxol-5-yl)-3-(3-t-butyl-1-(3-(hydroxymethyl)phenyl)-1H-pyrazol-5-yl)urea] has an IC50 of 88 nM. In the case of `CC(C)(C)c1cc(NC(=O)Nc2cccc(Cl)c2)n(-c2cccc(CO)c2)n1` [Example 222], the IC50 is reported as 47 nM. `CC(C)(C)c1cc(NC(=O)Nc2cccc(Br)c2)n(-c2cccc(CO)c2)n1` [Example 223, 1-{3-t-butyl-1-[3-(hydroxymethyl)phenyl]-1H-pyrazol-5-yl}-3-(3-bromophenyl)urea] gave an IC50 of 54 nM. Compound `CC(C)(C)c1cc(NC(=O)Nc2cccc(Cl)c2Cl)n(-c2cccc(C(=O)O)c2)n1` [Example 226, 3-{3-t-butyl-5-[3-(2,3-dichlorophenyl)ureido]-1H-pyrazol-1-yl}benzoic acid] has an IC50 of 20 nM. `COc1cccc(-n2nc(C(C)(C)C)cc2NC(=O)Nc2ccc(F)cc2)c1` [Example 230, 1-(3-t-butyl-1-(3-methoxyphenyl)-1H-pyrazol-5-yl)-3-(4-fluorophenyl)urea] showed an IC50 of 52 nM. `COc1cccc(-n2nc(C(C)(C)C)cc2NC(=O)Nc2cccc(Cl)c2)c1` [Example 231, 1-(3-t-butyl-1-(3-methoxyphenyl)-1H-pyrazol-5-yl)-3-(3-chlorophenyl)urea] gave an IC50 of 27 nM. `COc1cccc(-n2nc(C(C)(C)C)cc2NC(=O)Nc2ccc3c(c2)OCO3)c1` [Example 234, 1-(benzo[d][1,3]dioxo-5-yl)-3-(3-t-butyl-1-(3-methoxyphenyl)-1H-pyrazol-5-yl)urea] showed an IC50 of 32 nM. Work on `COc1ccc(-n2nc(C(C)(C)C)cc2NC(=O)Nc2cccc(C(F)(F)F)c2)cc1` [Example 238, 1-[3-t-butyl-1-(4-methoxyphenyl)-1H-pyrazol-5-yl]-3-(3-trifluoromethylphenyl)urea] yielded an IC50 of 65 nM. Compound `CCOC(=O)c1ccc(-n2nc(C(C)(C)C)cc2NC(=O)Nc2cccc(Cl)c2Cl)cc1` [Example 243, ethyl 4-{3-t-butyl-5-[3-(2,3-dichlorophenyl)ureido]-1H-pyrazol-1-yl}benzoate] has an IC50 of 41 nM. For `CC(C)(C)c1cc(NC(=O)Nc2cccc(Cl)c2Cl)n(-c2ccc(C(=O)O)cc2)n1` [Example 244, 4-{3-t-butyl-5-[3-(2,3-dichlorophenyl)ureido]-1H-pyrazol-1-yl}benzoic acid], the IC50 was 38 nM. `CC(=O)OCc1cccc(-n2nc(C(C)(C)C)cc2NC(=O)Nc2cccc(Cl)c2Cl)c1` [Example 245, 3-(3-t-butyl-5-(3-(2,3-dichlorophenyl)ureido)-1H-pyrazol-1-yl)benzyl acetate] gave an IC50 of 5.3 nM. `CC(C)(C)c1cc(NC(=O)Nc2cccc(F)c2F)n(-c2ccc(CO)cc2)n1` [Example 246, 1-{3-t-butyl-1-[4-(hydroxymethyl)phenyl]-1H-pyrazol-5-yl}-3-(2,3-difluoro-phenyl)urea] was tested, and the IC50 was 39 nM. `CCOC(=O)Cc1cccc(-n2nc(C(C)(C)C)cc2NC(=O)Nc2ccc3c(c2)OCO3)c1` [Example 247, ethyl 2-(3-{5-[3-(benzo[d][1,3]dioxol-5-yl)ureido]-3-t-butyl-1H-pyrazol-1-yl}phenyl)-acetate] gave an IC50 of 70 nM. In the case of `CC(C(=O)O)c1cccc(-n2nc(C(C)(C)C)cc2NC(=O)Nc2cccc(Cl)c2Cl)c1` (stereo not shown) [Example 248, 2-(3-(3-t-butyl-5-(3-(2,3-dichlorophenyl)ureido)-1H-pyrazol-1-yl)phenyl)propanoic acid], the IC50 is reported as 8.1 nM. With `CC(C)(C)c1cc(NC(=O)Nc2ccc3c(c2)OCO3)n(-c2cccc(CCN)c2)n1` [Example 253, 1-{1-[3-(2-aminoethyl)phenyl]-3-t-butyl-1 H-pyrazol-5-yl}-3-(benzo[d][1,3]dioxol-5-yl)urea] the IC50 was 75 nM. `CC(C)(C)c1cc(NC(=O)Nc2ccc(Cl)cc2)n(-c2cccc(CCN)c2)n1` [Example 255, 1-{1-[3-(2-aminoethyl)phenyl]-3-t-butyl-1H-pyrazol-5-yl}-3-(4-chlorophenyl)urea] was tested, and the IC50 was 86 nM. For `CNCCc1cccc(-n2nc(C(C)(C)C)cc2NC(=O)Nc2cccc(Cl)c2Cl)c1` [Example 258, 1-(3-t-butyl-1-(3-(2-(methylamino)ethyl)phenyl)-1H-pyrazol-5-yl)-3-(2,3-dichlorophenyl)urea], the IC50 was 3.4 nM. `CC(C)NCCc1cccc(-n2nc(C(C)(C)C)cc2NC(=O)Nc2cccc(Cl)c2Cl)c1` [Example 259, 1-(3-t-butyl-1-(3-(2-(isopropylamino)ethyl)phenyl)-1H-pyrazol-5-yl)-3-(2,3-dichlorophenyl)urea] was tested, and the IC50 was 8.3 nM. In the case of `CC(C)(C)c1cc(NC(=O)Nc2cccc(Cl)c2Cl)n(-c2ccc(C(=N)NO)cc2)n1` [Example 260, 4-{3-t-butyl-5-[3-(2,3-dichlorophenyl)ureido]pyrazol-1-yl}-N-hydroxybenzamidine], the IC50 is reported as 4 nM. For `CC(C)(C)c1cc(NC(=O)Nc2ccc(Cl)cc2)n(-c2cccc(CN3C(=O)C(=O)N(c4ccccc4)C3=O)c2)n1` [Example 269, 1-(3-t-butyl-1-(3-[(2,4,5-trioxo-3-phenylimidazolidin-1-yl)methyl]phenyl}-1H-pyrazol-5-yl)-3-(4-chlorophenyl)urea], the IC50 was 279 nM.
